# Patent publication US11712439B2, “Methods and materials for identifying and treating bet inhibitor-resistant cancers” (Mayo Foundation for Medical Education and Research, priority 2017, dated 2023)
# Test system: AR
# Assay: Western blot of AR, RT-qPCR of AR target genes and AR ChIP-qPCR in C4-2 cells
# Assay type: cell-based, human
# Details: control and SPOP-F133V C4-2 cells, JQ1 1 μM 24 hours
# Description: Cell lysates or immunoprecipitates were subjected to SDS-PAGE, and proteins were transferred to nitrocellulose membranes (GE Healthcare Sciences). The membranes were blocked in Tris-buffered saline (TBS, pH 7.4) containing 5% non-fat milk and 0.1% Tween-20, washed twice in TBS containing 0.1% Tween-20, and incubated with primary antibody overnight at 4° C., followed by secondary antibody for 1 hour at room temperature. The proteins of interest were visualized using ECL chemiluminescence system (Santa Cruz Biotechnology). Densitometry analysis of protein bands was analyzed on the Gel-Pro Analyzer software.
# Total RNA was isolated from transiently transfected cells using the Trizol reagent (Thermo Fisher Scientific), and cDNA was reverse-transcribed using the Superscript RT kit (TOYOBO, Japan) according to the manufacturer's instructions. PCR amplification was performed using the SYBR Green PCR master mix Kit (TOYOBO, Japan). All quantization was normalized to the level of endogenous control GAPDH. […]
compound,measurement,value
Cc1sc2c(c1C)C(c1ccc(Cl)cc1)=N[C@@H](CC(=O)OC(C)(C)C)c1nnc(C)n1-2 [JQ1],AR protein level,largely decreased
same,AR transcriptional activity,largely decreased
